From patent publication US12054482B2, “TLR8 agonist” (CHIA TAI TIANQING PHARMACEUTICAL GROUP CO., LTD., priority 2018, dated 2024)
Structures can show the parent of a compound that is named as a salt. Where two headings read alike, the source gives them in different places.

Tested on: human peripheral blood mononuclear cells (hPBMCs)
Assay: Cytokine induction in human peripheral blood mononuclear cells
Assay type: cell-based
Settings: PBMC, hPBMC, 24 hours
Description: Experimental Example 2: Experimental Procedure for Peripheral Blood Mononuclear Cell
TLR8 is a receptor for the innate immune system to sense exogenous pathogens, and can recognize exogenous viral single-stranded RNA and cause the release of a series of cytokines such as TNF-α, IL-12, IFN-γ to elicit an antiviral immune response; TLR7 is another receptor for the innate immune system to sense exogenous pathogens and, when activated, produces primarily such antiviral cytokines as IFN-α. In this experiment, a potential compound of TLR8 agonist was used to stimulate human peripheral blood mononuclear cells (hPBMCs), and the levels of TNF-α, IL-12p40, IFN-γ and IFN-α above were measured to reflect the activation of the compound on TLR8 receptor and its selectivity for TLR8/TLR7.
The experimental procedures are as follows: • 1. Fresh blood of healthy volunteers was collected, and anticoagulated with an EDTA-K2 anticoagulation tube (catalog No. BD-8516542); • 2. hPBMC cells in the middle cloud-like layer were separated after Ficoll density gradient centrifugation, and washed twice with RPMI1640 (source: Gibco, catalog No. 224400-089) containing 10% serum, and the culture medium was resuspended to 10 mL. After the cells were counted with Vi-cell cell counter, the concentration of cell suspension was adjusted to 2×10^6/mL; • 3. The compound was dissolved in DMSO to 100 mM, and diluted to 50 mM and 2 mM with DMSO, which were served as initial concentrations. Then the solutions were each diluted sequentially in a 3-fold gradient (sample at a previous concentration (5 μL)+DMSO (10 μL)) to obtain 8 gradients. The resulting solutions were respectively subjected to 500-fold dilution with the culture medium to prepare the working solutions of the compound; • 4. 100 μL of hPBMC suspension and 100 μL of compound working solution were added to each well of a U-bottom 96-well plate, with the final concentrations being 2000 nM, 666.7 nM, 222.2 nM, 74.1 nM, 24.7 nM, 8.2 nM, 2.7 nM and 0.9 nM respectively, and incubated for 24 hours. Then the supernatants were collected and cryopreserved at −20° C. for the detection of TNF-α, IFN-γ and IL-12p40 cytokines. The other group of compound samples, with the final concentrations being 50 μM, 16.7 μM, 5.6 μM, 1.9 μM, 0.6 μM, 0.2 μM, 0.1 μM and 0.02 μM respectively, were incubated for 24 hours. […] IL-12p40, TNF-α and IFN-γ in the supernatant were detected by flow cytometric bead array (CBA); IFN-α in the cell supernatant was detected by enzyme-linked immuno sorbent assay (ELISA). • 6. Data analysis: compound activity: EC50 values (half maximal effect concentration) were analyzed using a GraphPad Prism software and the dose-response curves of the compound were fitted to calculate EC50 values for the compound.

Structure (SMILES): CCCC[C@](C)(Cc1ncn[nH]1)Nc1nc(N)nc2cnccc12 [Hydrochloride of Example 1]
- EC50 (CBA, TLR8 pathway cytokine, read-out: IFN-γ EC50): 29 nM
- EC50 (CBA, TLR8 pathway cytokine, read-out: IL-12p40 EC50): 26 nM
- EC50 (CBA, TLR8 pathway cytokine, read-out: TNF-α EC50): 105 nM
- EC50 (ELISA, TLR7 pathway cytokine, read-out: IFN-α EC50): 2800 nM
